In patent publication US8952024B2, “Herbicidal pyrimidone derivatives” (E I du Pont de Nemours and Company, priority 2009, dated 2015):

Key:
Assay type in all cases: in vivo
[1] = tested on: Surinam grass (Brachiaria decumbens); experiment: Test B pre-/postemergence plant response; conditions: for Plant response rating, Surinam Grass: Postemergence; for Surinam Grass plant response rating (0 to 100 scale): 62 g ai/ha, postemergence, 0 is no effect, 100 is complete control
Outline: (§1)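 Visually scored on a 0 to 100 scale after 13 to 15 days in greenhouse versus controls. Treatments were preemergence on seeded loam/sand soil and postemergence on 1- to 4-leaf plants.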

[2] = tested on: blackgrass (Alopecurus myosuroides); experiment: Test B pre-/postemergence plant response; conditions: for Plant response rating, Blackgrass: Postemergence; for Blackgrass plant response rating (0 to 100 scale): 62 g ai/ha, postemergence, 0 is no effect, 100 is complete control
Outline: as §1

[3] = tested on: corn (Zea mays); experiment: Test B pre-/postemergence plant response; conditions: for Plant response rating, Corn: Postemergence; for Corn plant response rating (0 to 100 scale): 62 g ai/ha, postemergence, 0 is no effect, 100 is complete control
Outline: as §1

[4] = tested on: giant foxtail (Setaria faberii); experiment: Test B pre-/postemergence plant response; conditions: for Plant response rating, Foxtail, Giant: Postemergence; for Foxtail, Giant plant response rating (0 to 100 scale): 62 g ai/ha, postemergence, 0 is no effect, 100 is complete control
Outline: as §1

[5] = tested on: goosegrass (Eleusine indica); experiment: Test B pre-/postemergence plant response; conditions: for Plant response rating, Goosegrass: Postemergence; for Goosegrass plant response rating (0 to 100 scale): 62 g ai/ha, postemergence, 0 is no effect, 100 is complete control
Outline: as §1

[6] = tested on: green foxtail (Setaria viridis); experiment: Test B pre-/postemergence plant response; conditions: for Plant response rating, Foxtail, Green: Postemergence; for Foxtail, Green plant response rating (0 to 100 scale): 62 g ai/ha, postemergence, 0 is no effect, 100 is complete control
Outline: as §1

[7] = tested on: johnsongrass (Sorghum halepense); experiment: Test B pre-/postemergence plant response; conditions: for Plant response rating, Johnsongrass: Postemergence; for Johnsongrass plant response rating (0 to 100 scale): 62 g ai/ha, postemergence, 0 is no effect, 100 is complete control
Outline: as §1

[8] = tested on: lambsquarters (Chenopodium album); experiment: Test B pre-/postemergence plant response; conditions: for Plant response rating, Lambsquarters: Postemergence; for Lambsquarters plant response rating (0 to 100 scale): 62 g ai/ha, postemergence, 0 is no effect, 100 is complete control
Outline: as §1

[9] = tested on: pigweed (Amaranthus retroflexus); experiment: Test B pre-/postemergence plant response; conditions: for Plant response rating, Pigweed: Postemergence; for Pigweed plant response rating (0 to 100 scale): 62 g ai/ha, postemergence, 0 is no effect, 100 is complete control
Outline: as §1

[10] = tested on: ragweed (common ragweed, Ambrosia elatior); experiment: Test B pre-/postemergence plant response; conditions: for Plant response rating, Ragweed: Postemergence; for Ragweed plant response rating (0 to 100 scale): 62 g ai/ha, postemergence, 0 is no effect, 100 is complete control
Outline: as §1

[11] = tested on: wild oat (Avena fatua); experiment: Test B pre-/postemergence plant response; conditions: for Plant response rating, Oat, Wild: Postemergence; for Oat, Wild plant response rating (0 to 100 scale): 62 g ai/ha, postemergence, 0 is no effect, 100 is complete control
Outline: as §1

[12] = tested on: rice (Oryza sativa); experiment: Test B flooded paddy test; conditions: for Plant response rating, Flood, Rice: 250 g ai/ha, flooded paddy test, visual rating on 0 to 100 scale (0 no effect, 100 complete control) after 13 to 15 days; for Plant response rating, Rice: Flood (flooded paddy test), 62 g ai/ha, scale of 0 to 100 where 0 is no effect and 100 is complete control, 13 to 15 days
Outline: (§2)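 Rice, umbrella sedge, ducksalad and barnyardgrass were grown to the 2-leaf stage, flooded to 3 cm, and compound was applied directly to the paddy water, with that depth kept throughout. After 13 to 15 days in the greenhouse, plants were visually rated against controls on a 0 (no effect) to 100 (complete control) scale.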

[13] = tested on: umbrella sedge (Cyperus difformis); experiment: Test B flooded paddy test; conditions: for Plant response rating, Flood, Sedge, Umbrella: 250 g ai/ha, flooded paddy test, visual rating on 0 to 100 scale (0 no effect, 100 complete control) after 13 to 15 days; for Plant response rating, Sedge, Umbrella: Flood (flooded paddy test), 62 g ai/ha, scale of 0 to 100 where 0 is no effect and 100 is complete control, 13 to 15 days
Outline: as §2

[14] = 31 g ai/ha, 0 to 100 scale (0 no effect, 100 complete control)
[15] = 125 g ai/ha, scale 0 to 100 (0 no effect, 100 complete control)
[16] = 250 g ai/ha, scale 0 to 100 (0 no effect, 100 complete control), 13 to 15 days

SMILES: O=C1CCCC(O)=C1C(=O)c1cnc(-c2ccccc2)n(C2CCCC2)c1=O [Compound 131]
- Plant response rating, Surinam Grass ([1]; 16 g ai/ha, 0 to 100 scale): 15
- Surinam Grass plant response rating (0 to 100 scale) ([1]; 13 to 15 days): 60
- Plant response rating, Surinam Grass [1, 14]: 20
- Plant response rating, Surinam Grass [1, 15]: 65
- Plant response rating, Blackgrass ([2]; 16 g ai/ha, 0 to 100 scale): 0
- Blackgrass plant response rating (0 to 100 scale) ([2]; 13 to 15 days): 0
- Plant response rating, Blackgrass [2, 14]: 0
- Plant response rating, Blackgrass [2, 15]: 0
- Plant response rating, Corn ([3]; 16 g ai/ha, 0 to 100 scale): 0
- Corn plant response rating (0 to 100 scale) ([3]; 13 to 15 days): 10
- Plant response rating, Corn [3, 14]: 0
- Plant response rating, Corn [3, 15]: 20
- Plant response rating, Foxtail, Giant ([4]; 16 g ai/ha, 0 to 100 scale): 65
- Foxtail, Giant plant response rating (0 to 100 scale) ([4]; 13 to 15 days): 75
- Plant response rating, Foxtail, Giant [4, 14]: 75
- Plant response rating, Foxtail, Giant [4, 15]: 80
- Plant response rating, Goosegrass ([5]; 16 g ai/ha, 0 to 100 scale): 65
- Goosegrass plant response rating (0 to 100 scale) ([5]; 13 to 15 days): 65
- Plant response rating, Goosegrass [5, 14]: 65
- Plant response rating, Goosegrass [5, 15]: 75
- Plant response rating, Foxtail, Green ([6]; 16 g ai/ha, 0 to 100 scale): 40
- Foxtail, Green plant response rating (0 to 100 scale) ([6]; 13 to 15 days): 90
- Plant response rating, Foxtail, Green [6, 14]: 70
- Plant response rating, Foxtail, Green [6, 15]: 95
- Plant response rating, Johnsongrass ([7]; 16 g ai/ha, 0 to 100 scale): 0
- Johnsongrass plant response rating (0 to 100 scale) ([7]; 13 to 15 days): 25
- Plant response rating, Johnsongrass [7, 14]: 5
- Plant response rating, Johnsongrass [7, 15]: 50
- Plant response rating, Lambsquarters ([8]; 16 g ai/ha, 0 to 100 scale): 75
- Lambsquarters plant response rating (0 to 100 scale) ([8]; 13 to 15 days): 95
- Plant response rating, Lambsquarters [8, 14]: 85
- Plant response rating, Lambsquarters [8, 15]: 98
- Plant response rating, Pigweed ([9]; 16 g ai/ha, 0 to 100 scale): 60
- Pigweed plant response rating (0 to 100 scale) ([9]; 13 to 15 days): 95
- Plant response rating, Pigweed [9, 14]: 90
- Plant response rating, Pigweed [9, 15]: 100
- Plant response rating, Ragweed ([10]; 16 g ai/ha, 0 to 100 scale): 65
- Ragweed plant response rating (0 to 100 scale) ([10]; 13 to 15 days): 85
- Plant response rating, Ragweed [10, 14]: 80
- Plant response rating, Ragweed [10, 15]: 95
- Plant response rating, Oat, Wild ([11]; 16 g ai/ha, 0 to 100 scale): 0
- Oat, Wild plant response rating (0 to 100 scale) ([11]; 13 to 15 days): 0
- Plant response rating, Oat, Wild [11, 14]: 0
- Plant response rating, Oat, Wild [11, 15]: 0
- Plant response rating, Flood, Rice [12]: 55
- Plant response rating, Rice [12]: 25
- Plant response rating, Flood, Sedge, Umbrella [13]: 85
- Plant response rating, Sedge, Umbrella [13]: 20

SMILES: COCCCn1c(-c2cccc(Br)c2)ncc(C(=O)C2=C(O)CCCC2=O)c1=O [Compound 140]
- Surinam Grass plant response rating (0 to 100 scale) ([1]; 13 to 15 days): 50
- Plant response rating, Surinam Grass [1, 14]: 50
- Plant response rating, Surinam Grass [1, 15]: 55
- Plant response rating, Surinam Grass [1, 16]: 65
- Blackgrass plant response rating (0 to 100 scale) ([2]; 13 to 15 days): 0
- Plant response rating, Blackgrass [2, 14]: 0
- Plant response rating, Blackgrass [2, 15]: 5
- Plant response rating, Blackgrass [2, 16]: 5
- Corn plant response rating (0 to 100 scale) ([3]; 13 to 15 days): 5
- Plant response rating, Corn [3, 14]: 0
- Plant response rating, Corn [3, 15]: 25
- Plant response rating, Corn [3, 16]: 45
- Foxtail, Giant plant response rating (0 to 100 scale) ([4]; 13 to 15 days): 75
- Plant response rating, Foxtail, Giant [4, 14]: 65
- Plant response rating, Foxtail, Giant [4, 15]: 80
- Plant response rating, Foxtail, Giant [4, 16]: 90
- Goosegrass plant response rating (0 to 100 scale) ([5]; 13 to 15 days): 65
- Plant response rating, Goosegrass [5, 14]: 45
- Plant response rating, Goosegrass [5, 15]: 70
- Plant response rating, Goosegrass [5, 16]: 85
- Foxtail, Green plant response rating (0 to 100 scale) ([6]; 13 to 15 days): 60
- Plant response rating, Foxtail, Green [6, 14]: 45
- Plant response rating, Foxtail, Green [6, 15]: 85
- Plant response rating, Foxtail, Green [6, 16]: 95
- Johnsongrass plant response rating (0 to 100 scale) ([7]; 13 to 15 days): 15
- Plant response rating, Johnsongrass [7, 14]: 10
- Plant response rating, Johnsongrass [7, 15]: 35
- Plant response rating, Johnsongrass [7, 16]: 45
- Lambsquarters plant response rating (0 to 100 scale) ([8]; 13 to 15 days): 60
- Plant response rating, Lambsquarters [8, 14]: 45
- Plant response rating, Lambsquarters [8, 15]: 75
- Plant response rating, Lambsquarters [8, 16]: 80
- Pigweed plant response rating (0 to 100 scale) ([9]; 13 to 15 days): 70
- Plant response rating, Pigweed [9, 14]: 55
- Plant response rating, Pigweed [9, 15]: 75
- Plant response rating, Pigweed [9, 16]: 98
- Ragweed plant response rating (0 to 100 scale) ([10]; 13 to 15 days): 45
- Plant response rating, Ragweed [10, 14]: 25
- Plant response rating, Ragweed [10, 15]: 65
- Plant response rating, Ragweed [10, 16]: 75
- Oat, Wild plant response rating (0 to 100 scale) ([11]; 13 to 15 days): 5
- Plant response rating, Oat, Wild [11, 14]: 0
- Plant response rating, Oat, Wild [11, 15]: 10
- Plant response rating, Oat, Wild [11, 16]: 40
- Plant response rating, Flood, Rice [12]: 40
- Plant response rating, Rice [12]: 0
- Plant response rating, Flood, Sedge, Umbrella [13]: 85
- Plant response rating, Sedge, Umbrella [13]: 75
